Data: patent US10597375B2, “Halogen-substituted heterocyclic compound” (UBE INDUSTRIES, LTD., priority 2012, dated 2020)

What follows are molecules tested on A2058 human melanoma cells (assay: Cell migration test (LPA-induced, Chemo-Tx)). Conditions: LPA 100 nM, 3 hours, read-out: IC50: concentration of the test compound which inhibits the cell migration activity of LPA by 50%.
Assay type: cell-based
Method: The cell migration test was carried out using Chemo-Tx (registered trademark) (116-8, Neuro Probe). A2058 human melanoma cells (obtained from European Collection of Cell Culture) were cultured in a serum-free EMEM medium for 24 hours, and then re-suspended in a 0.1% BSA-containing DMEM medium to obtain a cell suspension. The test compound dissolved in DMSO in various concentration was each added to the cell suspension, and the suspension was cultured at 37° C. for 15 minutes (the final DMSO concentration of 0.5%). LPA dissolved in a 0.1% BSA-containing DMEM medium (the final concentration of 100 nM) was added to Chemo-Tx 96 well plate, and a Chemo-Tx filter which had been coated with 0.001% Fibronectin on the both surfaces was put on the plate. The suspension of cultured cells (25,000 cells) was added onto the upper surface of the filter and further cultured at 37° C. for 3 hours, and the cells on the upper surface of the filter were removed. After the filter was removed and dried, the cells which had migrated to the lower surface of the filter were stained using Diff-Quik stain (16920, Sysmex). The absorbance of the filter (570 nm) was measured and the concentration of the test compound which inhibits the cell migration activity of LPA by 50%, (1050) was determined by non-linear regression analysis using EXSAS (version 7.6.0, Arm Systex).

IC50, ≤ 0.2 µM:
COc1cc(-c2sc(F)cc2NC(=O)OC(C)c2cc(F)ccc2Cl)ccc1-c1ccc(C2(C(=O)O)CC2)cc1 (racemic) [I-469, (RS)-1-{4′-[3-({[1-(2-Chloro-5-fluorophenyl)ethoxy]carbonyl}amino)-5-fluorothiophen-2-yl]-2′-methoxy-[1,1′-biphenyl]-4-yl}cyclopropanecarboxylic acid]
C[C@@H](OC(=O)Nc1cc(Cl)sc1-c1ccc(-c2ccc(C3(C(=O)O)CC3)cc2)c([N+](=O)[O-])c1)c1ccc(F)cc1 [I-498, (R)-1-{4′-[5-Chloro-3-({[1-(4-fluorophenyl)ethoxy]carbonyl}amino)thiophen-2-yl]-2′-nitro-[1,1′-biphenyl]-4-yl}cyclopropanecarboxylic acid]
C[C@@H](OC(=O)Nc1cc(Cl)sc1-c1ccc(-c2ccc(C3(C(=O)O)CC3)cc2)c(N)c1)c1ccccc1 [I-534]
COc1cc(-c2sc(Cl)cc2NC(=O)O[C@H](C)c2ccc(F)cc2Cl)ccc1-c1ccc(C2(C(=O)O)CC2)cc1 [I-396, (R)-1-{4′-[5-Chloro-3-({[1-(2-chloro-4-fluorophenyl)ethoxy]carbonyl}amino)thiophen-2-yl]-2′-methoxy-[1,1′-biphenyl]-4-yl}cyclopropanecarboxylic acid]
Cc1cscc1C(C)OC(=O)Nc1cc(Cl)sc1-c1ccc(-c2ccc(C3(C(=O)O)CC3)cc2)cc1 (racemic) [I-605, (RS)-1-{4′-[5-Chloro-3-({[1-(4-methylthiophen-3-yl)ethoxy]carbonyl}amino)thiophen-2-yl]-[1,1′-biphenyl]-4-yl}cyclopropanecarboxylic acid]
COc1cc(-c2sc(F)cc2NC(=O)OC(C)c2ccc(F)cc2C)ccc1-c1ccc(C2(C(=O)O)CC2)cc1 (racemic) [I-477, (RS)-1-{4′-[5-Fluoro-3-({[1-(4-fluoro-2-methylphenyl)ethoxy]carbonyl}amino)thiophen-2-yl]-2′-methoxy-[1,1′-biphenyl]-4-yl}cyclopropanecarboxylic acid]
COc1cc(-c2sc(Cl)cc2NC(=O)OC(C)c2cscc2C)ccc1-c1ccc(C2(C(=O)O)CC2)cc1 (racemic) [I-783, (RS)-1-{4′-[5-Chloro-3-({[1-(4-methylthiophen-3-yl)ethoxy]carbonyl}amino)thiophen-2-yl]-2′-methoxy-[1,1′-biphenyl]-4-yl}cyclopropanecarboxylic acid]
COc1cc(-c2sc(F)cc2NC(=O)O[C@H](C)c2cccs2)ccc1-c1ccc(C2(C(=O)O)CC2)cc1 [I-840, (R)-1-{4′-[5-Fluoro-3-({[1-(thiophen-2-yl)ethoxy]carbonyl}amino)thiophen-2-yl]-2′-methoxy-[1,1′-biphenyl]-4-yl}cyclopropanecarboxylic acid]
C[C@@H](OC(=O)Nc1cc(F)sc1-c1ccc(-c2ccc(C3(C(=O)O)CC3)cc2)cc1)c1cccs1 [I-674, (R)-1-{4′-[5-Fluoro-3-({[1-(thiophen-2-yl)ethoxy]carbonyl}amino)thiophen-2-yl]-[1,1′-biphenyl]-4-yl}cyclopropanecarboxylic acid]
C[C@@H](OC(=O)Nc1cc(Cl)sc1-c1ccc(-c2ccc(C3(C(=O)O)CC3)cc2)c([N+](=O)[O-])c1)c1ccccc1 [I-490, (R)-1-[4′-(5-Chloro-3-{[(1-phenylethoxy)carbonyl]amino}thiophen-2-yl)-2′-nitro-[1,1′-biphenyl]-4-yl]cyclopropanecarboxylic acid]
C[C@@H](OC(=O)Nc1cc(F)sc1-c1ccc(-c2ccc(C3(C(=O)O)CC3)cc2)cc1)c1ccc(F)c(F)c1 [I-148, (R)-1-{4′-[3-({[1-(3,4-Difluorophenyl)ethoxy]carbonyl}amino)-5-fluorothiophen-2-yl]-[1,1′-biphenyl]-4-yl}cyclopropanecarboxylic acid]
COc1cc(-c2sc(Cl)cc2NC(=O)OC(C)c2cscc2Cl)ccc1-c1ccc(C2(C(=O)O)CC2)cc1 (racemic) [I-791, (RS)-1-{4′-[5-Chloro-3-({[1-(4-chlorothiophen-3-yl)ethoxy]carbonyl}amino)thiophen-2-yl]-2′-methoxy-[1,1′-biphenyl]-4-yl}cyclopropanecarboxylic acid]
COc1cc(-c2sc(F)cc2NC(=O)OC(C)c2cscc2Cl)ccc1-c1ccc(C2(C(=O)O)CC2)cc1 (racemic) [I-823, (RS)-1-{4′-[3-({[1-(4-Chlorothiophen-3-yl)ethoxy]carbonyl}amino)-5-fluorothiophen-2-yl]-2′-methoxy-[1,1′-biphenyl]-4-yl}cyclopropanecarboxylic acid]
CC(OC(=O)Nc1cc(Cl)sc1-c1ccc(-c2ccc(C3(C(=O)O)CC3)cc2)cc1)c1ccsc1 (racemic) [I-595, (RS)-1-{4′-[5-Chloro-3-({[1-(thiophen-3-yl)ethoxy]carbonyl}amino)thiophen-2-yl]-[1,1′-biphenyl]-4-yl}cyclopropanecarboxylic acid]
COc1cc(-c2sc(F)cc2NC(=O)O[C@H](C)c2ccc(Cl)cc2)ccc1-c1ccc(C2(C(=O)O)CC2)cc1 [I-446, (R)-1-{4′-[3-({[1-(4-Chlorophenyl)ethoxy]carbonyl}amino)-5-fluorothiophen-2-yl]-2′-methoxy-[1,1′-biphenyl]-4-yl}cyclopropanecarboxylic acid]
COc1cc(-c2sc(F)cc2NC(=O)OC(C)c2cc(F)ccc2C)ccc1-c1ccc(C2(C(=O)O)CC2)cc1 (racemic) [I-481, (RS)-1-{4′-[5-Fluoro-3-({[1-(5-fluoro-2-methylphenyl)ethoxy]carbonyl}amino)thiophen-2-yl]-2′-methoxy-[1,1′-biphenyl]-4-yl}cyclopropanecarboxylic acid]
CC(OC(=O)Nc1cc(Cl)sc1-c1ccc(-c2ccc(C3(C(=O)O)CC3)cc2)cc1)c1cnsc1 (racemic) [I-625, (RS)-1-{4′-[5-Chloro-3-({[1-(isothiazol-4-yl)ethoxy]carbonyl}amino)thiophen-2-yl]-[1,1′-biphenyl]-4-yl}cyclopropanecarboxylic acid]
CC(OC(=O)Nc1cc(F)sc1-c1ccc(-c2ccc(C3(C(=O)O)CC3)cc2)cc1)c1cc(F)c(F)cc1F (racemic) [I-171, (RS)-1-{4′-[5-Fluoro-3-({[1-(2,4,5-trifluorophenyl)ethoxy]carbonyl}amino)thiophen-2-yl]-[1,1′-biphenyl]-4-yl}cyclopropanecarboxylic acid]
COc1cc(-c2sc(F)cc2NC(=O)O[C@H](C)c2ccc(F)cc2F)ccc1-c1ccc(C2(C(=O)O)CC2)cc1 [I-454, (R)-1-{4′-[3-({[1-(2,4-Difluorophenyl)ethoxy]carbonyl}amino)-5-fluorothiophen-2-yl]-2′-methoxy-[1,1′-biphenyl]-4-yl}cyclopropanecarboxylic acid]
COc1cc(-c2sc(Cl)cc2NC(=O)OC(C)c2ccsc2)ccc1-c1ccc(C2(C(=O)O)CC2)cc1 (racemic) [I-779, (RS)-1-{4′-[5-Chloro-3-({[1-(thiophen-3-yl)ethoxy]carbonyl}amino)thiophen-2-yl]-2′-methoxy-[1,1′-biphenyl]-4-yl}cyclopropanecarboxylic acid]
